In patent US12696900B2, “Crop enhancement” (SYNGENTA CROP PROTECTION AG, priority 2020, dated 2026):

What was measured:
[1] = test system: Corn seeds (var. NK Falkone); experiment: Corn germination test (24 well plates, kinetic analysis of germination); type: in vivo; settings: for Plateau of Germination (total percentage of germinated seeds), Sign. / Time taken to reach 50% germination of corn, Sign. / Uniformity of Germination (slope of the curve), Sign.: significance vs untreated, p<0.05, ns=not significant; for Plateau of Germination (total percentage of germinated seeds), total % of germinated seeds / Time taken to reach 50% germination of corn, Relative T50 / Uniformity of Germination (slope of the curve), Relative slope: untreated = 100
Procedure: Corn seeds (var. NK Falkone, Syngenta Seeds SAS, St. Sauveur, France) were sorted by size using a sieve to eliminate round seeds. The corn seeds were placed in 24 well plates (1 seed per well; each plate was considered as one experimental unit or replicate). Germination was initiated by the addition of 250 μl of distilled water containing 0.5% dimethyl sulfoxide (DMSO) to each well (with isocycloseram present at a concentration of either 1, 5, 25 or 125 μM). 8 replicates (i.e. 8 plates) were used for each treatment characterisation. The plates were sealed using seal foil (Polyolefin Art. Nr. 900320) from HJ-BIOANALYTIK. All plates were placed in a climatic chamber at either 15° C. or 23° C., with 60% Relative Humidity. The experiment was laid out in a completely randomized design. Germination was followed over time by taking photographs at different time points. Image analysis was performed automatically with a macro which was developed using the Image J software. A kinetic analysis of germination was carried out by fitting a trend curve. Three parameters were calculated from the trend curve: the T50 (time taken for 50% germination; related to speed of germination); the slope of the curve (the uniformity of germination) and the plateau (the total percentage of germinated seeds). […] The results are expressed in terms of percentage in comparison to the control (untreated seeds) for each temperature group respectively. The results were analysed statistically to highlight significant differences (p<0.05). (Key: Sign.=significance; ns=not significant)
All three parameters have a high agronomical relevance. Significant differences between treated seeds and untreated control are given at p<0.05 (Anova). T50 corresponds to the time needed for half of the seed population to germinate; lower values indicate faster germination. Slope indicates how synchronous the germination of the seed population is; values greater than 100 indicate a steeper curve. The steeper the curve, the better and more uniform the germination is. […] At the two highest rates, the speed of germination (T50) was faster at both temperatures, indicating a positive impact on germination speed.

[2] = test system: Wheat seeds (winter wheat variety Syllon); experiment: Wheat germination test under increased salinity (salt stress); type: in vivo; settings: for Time taken to reach 50% germination of wheat, Sign. / Time taken to reach 50% germination of wheat, Relative T50: increased salinity, 12.5 mM NaCl solution, 23° C.; for Time taken to reach 50% germination of wheat, Sign.: significance vs untreated, p<0.05; for Time taken to reach 50% germination of wheat, Relative T50: untreated = 100
Procedure: Wheat seeds (winter wheat variety Syllon, Syngenta Seeds) were placed in 24 well plates (1 seed per well, each plate was considered as one experimental unit or replicate). […] Subsequently, a salt solution was prepared at this concentration and spiked with the test compound at different rates as shown below in Table 3, and the germination test was repeated under salt stress. Eight replicates (i.e. 8 plates) were used for each treatment. Plates were sealed with seal foil (Polyolefin Art. Nr. 900320) from HJ-BIOANALYTIK. All plates were placed in a climatic chamber at 23° C. with 70% Relative Humidity. The experiment was laid out in a completely randomized design. Germination was followed over time by taking photographs at different time points. Image analysis was performed automatically with a macro which was developed using the Image J software. A kinetic analysis of germination was carried out by fitting a trend curve. Three parameters were calculated from the trend curve: the T50 (time taken for 50% germination; speed of germination); the slope of the curve (the uniformity of germination) and the plateau (the total percentage of germinated seeds). […] The results are expressed in terms of percentage in comparison to the check (untreated seeds) and the results are analysed statistically to highlight significant differences (p<0.05). (Key: Sign.=significance)
T50 corresponds to the time needed for half of the seed population to germinate and is a germination parameter of high agronomical relevance. Significant differences between treated seeds and untreated control are given at p<0.05 (Anova). Lower values indicate faster germination.

[3] = 15° C. (cold conditions), isocycloseram 1 μM
[4] = 15° C. (cold conditions), isocycloseram 5 μM
[5] = 15° C. (cold conditions), isocycloseram 25 μM
[6] = 15° C. (cold conditions), isocycloseram 125 μM
[7] = 23° C. (normal conditions), isocycloseram 1 μM
[8] = 23° C. (normal conditions), isocycloseram 5 μM
[9] = 23° C. (normal conditions), isocycloseram 25 μM
[10] = 23° C. (normal conditions), isocycloseram 125 μM

SMILES: CCN1OCC(NC(=O)c2ccc(C3=NOC(c4cc(Cl)c(F)c(Cl)c4)(C(F)(F)F)C3)cc2C)C1=O (stereo not shown) [Isocycloseram, isocycloseram]
- Plateau of Germination (total percentage of germinated seeds), Sign. [1, 3]: ns
- Time taken to reach 50% germination of corn, Sign. [1, 3]: ns
- Uniformity of Germination (slope of the curve), Sign. [1, 3]: ns
- Plateau of Germination (total percentage of germinated seeds), total % of germinated seeds [1, 3]: 103 percentage in comparison to the control
- Time taken to reach 50% germination of corn, Relative T50 [1, 3]: 99.67 percentage in comparison to the control
- Uniformity of Germination (slope of the curve), Relative slope [1, 3]: 100 percentage in comparison to the control
- Plateau of Germination (total percentage of germinated seeds), Sign. [1, 4]: higher
- Time taken to reach 50% germination of corn, Sign. [1, 4]: ns
- Uniformity of Germination (slope of the curve), Sign. [1, 4]: ns
- Plateau of Germination (total percentage of germinated seeds), total % of germinated seeds [1, 4]: 105 percentage in comparison to the control
- Time taken to reach 50% germination of corn, Relative T50 [1, 4]: 101.73 percentage in comparison to the control
- Uniformity of Germination (slope of the curve), Relative slope [1, 4]: 98 percentage in comparison to the control
- Plateau of Germination (total percentage of germinated seeds), Sign. [1, 5]: higher
- Time taken to reach 50% germination of corn, Sign. [1, 5]: Faster
- Uniformity of Germination (slope of the curve), Sign. [1, 5]: more
- Plateau of Germination (total percentage of germinated seeds), total % of germinated seeds [1, 5]: 106 percentage in comparison to the control
- Time taken to reach 50% germination of corn, Relative T50 [1, 5]: 93.1 percentage in comparison to the control
- Uniformity of Germination (slope of the curve), Relative slope [1, 5]: 233 percentage in comparison to the control
- Plateau of Germination (total percentage of germinated seeds), Sign. [1, 6]: higher
- Time taken to reach 50% germination of corn, Sign. [1, 6]: Faster
- Uniformity of Germination (slope of the curve), Sign. [1, 6]: more
- Plateau of Germination (total percentage of germinated seeds), total % of germinated seeds [1, 6]: 105 percentage in comparison to the control
- Time taken to reach 50% germination of corn, Relative T50 [1, 6]: 90.61 percentage in comparison to the control
- Uniformity of Germination (slope of the curve), Relative slope [1, 6]: 191 percentage in comparison to the control
- Plateau of Germination (total percentage of germinated seeds), Sign. [1, 7]: ns
- Time taken to reach 50% germination of corn, Sign. [1, 7]: Slower
- Uniformity of Germination (slope of the curve), Sign. [1, 7]: less
- Plateau of Germination (total percentage of germinated seeds), total % of germinated seeds [1, 7]: 103.63 percentage in comparison to the control
- Time taken to reach 50% germination of corn, Relative T50 [1, 7]: 107.32 percentage in comparison to the control
- Uniformity of Germination (slope of the curve), Relative slope [1, 7]: 80.22 percentage in comparison to the control
- Plateau of Germination (total percentage of germinated seeds), Sign. [1, 8]: ns
- Time taken to reach 50% germination of corn, Sign. [1, 8]: Slower
- Uniformity of Germination (slope of the curve), Sign. [1, 8]: ns
- Plateau of Germination (total percentage of germinated seeds), total % of germinated seeds [1, 8]: 103.63 percentage in comparison to the control
- Time taken to reach 50% germination of corn, Relative T50 [1, 8]: 105.17 percentage in comparison to the control
- Uniformity of Germination (slope of the curve), Relative slope [1, 8]: 93.8 percentage in comparison to the control
- Plateau of Germination (total percentage of germinated seeds), Sign. [1, 9]: higher
- Time taken to reach 50% germination of corn, Sign. [1, 9]: Faster
- Uniformity of Germination (slope of the curve), Sign. [1, 9]: more
- Plateau of Germination (total percentage of germinated seeds), total % of germinated seeds [1, 9]: 105.39 percentage in comparison to the control
- Time taken to reach 50% germination of corn, Relative T50 [1, 9]: 95.22 percentage in comparison to the control
- Uniformity of Germination (slope of the curve), Relative slope [1, 9]: 133.81 percentage in comparison to the control
- Plateau of Germination (total percentage of germinated seeds), Sign. [1, 10]: ns
- Time taken to reach 50% germination of corn, Sign. [1, 10]: Faster
- Uniformity of Germination (slope of the curve), Sign. [1, 10]: more
- Plateau of Germination (total percentage of germinated seeds), total % of germinated seeds [1, 10]: 100.7 percentage in comparison to the control
- Time taken to reach 50% germination of corn, Relative T50 [1, 10]: 92.47 percentage in comparison to the control
- Uniformity of Germination (slope of the curve), Relative slope [1, 10]: 176.64 percentage in comparison to the control
- changes in germination rate and uniformity (corn) ([1]; isocycloseram 1, 5, 25 and 125 μM, 15° C. or 23° C., especially under the colder conditions and higher concentrations): significant changes in germination rate and uniformity
- effect on corn seed germination kinetics ([1]; low temperature (15° C.)): consistent effect
- effect on wheat seed germination kinetics ([2]; increased salinity (salt stress)): consistent effect
- Time taken to reach 50% germination of wheat, Sign. ([2]; isocycloseram 1 μM): Faster
- Time taken to reach 50% germination of wheat, Relative T50 ([2]; isocycloseram 1 μM): 95.27 percentage in comparison to the check
- Time taken to reach 50% germination of wheat, Sign. ([2]; isocycloseram 5 μM): Faster
- Time taken to reach 50% germination of wheat, Relative T50 ([2]; isocycloseram 5 μM): 94.70 percentage in comparison to the check
- Time taken to reach 50% germination of wheat, Sign. ([2]; isocycloseram 25 μM): Faster
- Time taken to reach 50% germination of wheat, Relative T50 ([2]; isocycloseram 25 μM): 93.07 percentage in comparison to the check
- changes in germination speed (wheat) ([2]; isocycloseram 1, 5, and 25 μM, salt stress, 12.5 mM NaCl): significant changes in germination speed
